Reference: patent publication US20200017496A1 (priority 2017, published 2020)
Like-named read-outs stand apart in the source and are kept apart here.

Key:
Assay in all cases: MIC of compounds alone and combined with antibacterials, broth microdilution (CLSI)
Format in all cases: cell-based
[1] = system: Klebsiella pneumoniae (KPN) isolates; conditions: AF1 @ 4 μg/mL
In short: (§1)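 First, log-phase suspensions are brought to a final 5·10^5 CFU/mL in cation-adjusted Mueller-Hinton broth. Then plates with compound, antibacterial, or both incubate 16-20 h at 35° C under ambient air. Finally, visual inspection gives the lowest growth-preventing concentration for each agent.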

[2] = system: Enterobacter cloacae (ECL) isolates
In short: as §1

[3] = system: Serratia marcescens (SMA) isolates; conditions: for MIC: Serratia marcescens, ATB alone, read-out: MIC
In short: as §1

[4] = system: Citrobacter freundii (CFR) isolates
In short: as §1

C=CC1=C(C(=O)O)N2C(=O)[C@@H](NC(=O)/C(=N\O)c3csc(N)n3)[C@H]2SC1 [CDR, Cefdinir]
MIC ATB in combination ([1]; KPN 6299): <=0.25 μg/mL
MIC ATB in combination ([1]; KPN 110376): 0.5 µg/mL
MIC ATB in combination ([1]; KPN 131119): 1 µg/mL
MIC ATB in combination ([1]; KPN 140513): 16 µg/mL
MIC ATB in combination ([1]; KPN 160143): <=0.25 μg/mL
MIC ATB in combination ([1]; KPN 190128): 1 µg/mL
MIC ATB in combination ([1]; KPN 190270): 1 µg/mL
MIC ATB in combination ([1]; KPN 190425): <=0.25 μg/mL
MIC ATB in combination ([1]; KPN 190551): <=0.25 μg/mL
MIC ATB in combination ([1]; KPN 200047): <=0.25 μg/mL
MIC ATB in combination ([1]; KPN 200327): <=0.25 μg/mL
MIC ATB in combination ([1]; KPN 260251): 0.5 µg/mL
MIC ATB in combination ([1]; KPN 260252): 16 µg/mL
MIC ATB in combination ([1]; KPN 260376): <=0.25 μg/mL
MIC ATB in combination ([1]; KPN 270077): 1 µg/mL
MIC ATB in combination ([1]; KPN 700603): 0.5 µg/mL
MIC ATB in combination ([1]; KPN ARA): 0.5 µg/mL
MIC ATB in combination ([1]; KPN BAA-1898): 0.5 µg/mL
MIC ATB in combination ([1]; KPN LIB): 1 µg/mL
MIC ATB in combination ([1]; KPN UFR22_O): 1 µg/mL
MIC ATB in combination ([1]; KPN UFR23): 0.5 µg/mL
MIC ATB in combination ([1]; KPN UFR24): 4 µg/mL
MIC ATB in combination ([1]; KPN UFR25): <=0.25 μg/mL
MIC ATB in combination ([1]; KPN UFR27): 8 µg/mL
MIC ATB in combination ([1]; KPN UFR28): 1 µg/mL
MIC ATB in combination ([1]; KPN UFR65): 2 µg/mL
MIC ATB in combination ([1]; KPN UFR66): 2 µg/mL
MIC ATB in combination ([1]; KPN UFR67): 16 µg/mL
MIC ATB in combination ([1]; KPN UFR68): 2 µg/mL
MIC ATB in combination ([1]; KPN UFR76): >128 µg/mL
MIC ATB in combination ([1]; KPN UFR77): 8 µg/mL
MIC ATB in combination ([1]; KPN UFR78): 128 µg/mL
MIC ATB in combination ([1]; KPN UFR79): 16 µg/mL
MIC ATB in combination ([1]; KPN UFR80): 1 µg/mL
MIC ATB in combination ([1]; KPN UFR81): 16 µg/mL
MIC ATB in combination ([1]; KPN UFR215): 0.5 µg/mL
MIC ATB in combination ([1]; KPN UFR216): <=0.25 μg/mL
MIC ATB in combination ([1]; KPN UFR217): <=0.25 μg/mL
MIC ATB in combination ([1]; KPN UFR219): <=0.25 μg/mL
MIC ATB in combination ([1]; KPN UFR220): 2 µg/mL
MIC ATB in combination ([1]; KPN UFR221): 2 µg/mL
MIC ATB in combination ([1]; KPN UFR222): 16 µg/mL
MIC ATB in combination ([1]; KPN UFR227O): 32 µg/mL
MIC ATB in combination ([2]; ECL 190310, AF1 @ 4 μg/mL): 64 µg/mL
MIC ATB in combination ([2]; ECL 190408, AF1 @ 4 μg/mL): <=0.25 μg/mL
MIC ATB in combination ([2]; ECL 200138, AF1 @ 4 μg/mL): 64 µg/mL
MIC ATB in combination ([2]; ECL 200322, AF1 @ 4 μg/mL): 4 µg/mL
MIC ATB in combination ([2]; ECL 260253, AF1 @ 4 μg/mL): 32 µg/mL
MIC ATB in combination ([2]; ECL 260323, AF1 @ 4 μg/mL): 64 µg/mL
MIC ATB in combination ([2]; ECL 260508, AF1 @ 4 μg/mL): 2 µg/mL
MIC ATB in combination ([2]; ECL NEM146383, AF1 @ 4 μg/mL): 32 µg/mL
MIC ATB in combination ([2]; ECL P99, AF1 @ 4 μg/mL): 16 µg/mL
MIC ATB in combination ([2]; ECL UFR12, AF1 @ 4 μg/mL): 4 µg/mL
MIC ATB in combination ([2]; ECL UFR13, AF1 @ 4 μg/mL): 16 µg/mL
MIC ATB in combination ([2]; ECL UFR14, AF1 @ 4 μg/mL): 32 µg/mL
MIC ATB in combination ([2]; ECL UFR60, AF1 @ 4 μg/mL): 8 µg/mL
MIC ATB in combination ([2]; ECL UFR70, AF1 @ 4 μg/mL): 4 µg/mL
MIC ATB in combination ([2]; ECL UFR84, AF1 @ 4 μg/mL): 64 µg/mL
MIC ATB in combination ([2]; ECL UFR85, AF1 @ 4 μg/mL): 8 µg/mL
MIC ATB in combination ([2]; ECL UFR194, AF1 @ 4 μg/mL): 2 µg/mL
MIC ATB in combination ([2]; ECL UFR200, AF1 @ 4 μg/mL): 2 µg/mL
MIC ATB in combination ([2]; strain ECL UFR195, antibacterial combined with AF1 @ 4 μg/mL): 4 µg/mL
MIC ATB in combination ([2]; strain ECL UFR196, antibacterial combined with AF1 @ 4 μg/mL): 16 µg/mL
MIC ATB in combination ([2]; strain ECL UFR197, antibacterial combined with AF1 @ 4 μg/mL): 8 µg/mL
MIC ATB in combination ([2]; strain ECL UFR198, antibacterial combined with AF1 @ 4 μg/mL): 32 µg/mL
MIC ATB in combination ([3]; SMA UFR30, AF1 @ 4 μg/mL): 1 µg/mL
MIC ATB in combination ([3]; SMA UFR134, AF1 @ 4 μg/mL): 4 µg/mL
MIC ATB in combination ([3]; SMA UFR135, AF1 @ 4 μg/mL): 16 µg/mL
MIC ATB in combination ([3]; SMA UFR136, AF1 @ 4 μg/mL): 16 µg/mL
MIC ATB in combination ([3]; SMA UFR137, AF1 @ 4 μg/mL): 1 µg/mL
MIC ATB in combination ([3]; SMA UFR138, AF1 @ 4 μg/mL): 4 µg/mL
MIC ATB in combination ([3]; SMA UFR139, AF1 @ 4 μg/mL): 4 µg/mL
MIC ATB in combination ([3]; SMA UFR141, AF1 @ 4 μg/mL): 4 µg/mL
MIC ATB in combination ([3]; SMA UFR142, AF1 @ 4 μg/mL): 8 µg/mL
MIC ATB in combination ([3]; SMA UFR143, AF1 @ 4 μg/mL): 2 µg/mL
MIC ATB in combination ([3]; SMA UFR239, AF1 @ 4 μg/mL): 16 µg/mL
MIC ([3]; strain SMA UFR238 (OXA-48)): > 256 µg/mL
MIC ([3]; strain SMA UFR30 (OXA-405)): > 256 µg/mL
MIC ([3]; strain SMA UFR136 (TEM-1, SHV-12, KPC-2)): > 256 µg/mL
MIC ([3]; strain SMA UFR141 (OXA-48)): > 256 µg/mL
MIC ([3]; strain SMA UFR142 (OXA-48)): > 256 µg/mL
MIC ([3]; strain SMA UFR143 (CTX-M-15, OXA-1, OXA-48)): > 256 µg/mL
MIC ATB in combination ([3]; strain SMA UFR238, antibacterial combined with AF1 @ 4 μg/mL): 4 µg/mL
MIC ATB in combination ([4]; CFR UFR10, AF1 @ 4 μg/mL): <=0.25 μg/mL
MIC ATB in combination ([4]; CFR UFR11, AF1 @ 4 μg/mL): 128 µg/mL
MIC ATB in combination ([4]; CFR UFR83, AF1 @ 4 μg/mL): >128 µg/mL
MIC ATB in combination ([4]; CFR UFR146, AF1 @ 4 μg/mL): 0.5 µg/mL
MIC ATB in combination ([4]; CFR UFR248, AF1 @ 4 μg/mL): 0.5 µg/mL
MIC ATB in combination ([4]; CFR UFR249, AF1 @ 4 μg/mL): <=0.25 μg/mL
MIC ATB in combination ([4]; CFR UFR250, AF1 @ 4 μg/mL): <=0.25 μg/mL
MIC ATB in combination ([4]; strain CFR UFR253, antibacterial combined with AF1 @ 4 μg/mL): <=0.25 μg/mL
MIC ATB in combination ([4]; strain CFR UFR254, antibacterial combined with AF1 @ 4 μg/mL): <=0.25 μg/mL
